# Laboratory results reported in paper PMC7865387, “Artemether-Loaded Zein Nanoparticles: An Innovative Intravenous Dosage Form for the Management of Severe Malaria” (International Journal of Molecular Sciences, 2021).
# Legend:
# red blood cells (RBCs) = assay: In vitro hemolytic test; format: cell-based; conditions: artemether 2 mg/mL in 5% DMSO; 4% v/v rat RBCs, 37 °C, 1 h; positive control Triton X 100
# Protocol: This test was performed to examine the hemolytic potential of artemether-loaded zein nanoparticles and the formulation ingredients on red blood cells (RBCs). Freshly collected rat blood was centrifuged at 1500× g for 10 min at 4 °C. The plasma was collected for other purpose. The remaining RBCs were washed with PBS and then centrifuged at 1500× g at 4 °C for 5 min. After two repeats of such procedures, the RBCs were diluted 25 times with PBS to make a 4% v/v RBCs dispersion. Such RBCs were kept at 4 °C and used within 24 h. The impact of artemether-loaded zein nanoparticles containing 2 mg/mL artemether, raw artemether in 5% v/v aqueous DMSO solution (2 mg/mL), 5% v/v aqueous DMSO solution, sodium caseinate (7.5 mg/mL) solution, artemether (2 mg/mL) together with sodium caseinate (7.5 mg/mL) solution was assessed. PBS and 1% v/v Triton-X 100 solution were assessed by adding 1 mL of the test solutions each to 1 mL of the 4% v/v RBCs dispersion. Each sample was incubated with the RBCs at 37 °C for 1 h and then centrifuged at 1500× g for 10 min. The absorbance of the supernatant was taken at 550 nm with U-2900 UV spectrophotometer (Hitachi, Japan). Percentage haemolysis was calculated as follows:(3) Hemolysis (%)=AbsorbanceTest group−AbsorbancePBS/AbsorbanceTriton−X100−AbsorbancePBS×100%
# [1] = In vitro release study (sample and separate method); format: physicochemical; conditions: PBS pH 7.4, 37 °C, sink conditions; n = 3
# Protocol: The dissolution profile of artemether-loaded zein nanoparticles was studied by the “sample and separate” method. In brief, artemether-loaded zein nanoparticle powders containing 6 mg artemether were put in 100 mL phosphate buffered saline (PBS) of pH 7.4. The study was performed under sink conditions at 37 ± 0.5 °C with 150 rpm stirring. The beaker was covered with parafilm to minimize water loss via evaporation. In total, 1 mL samples were withdrawn at selected time points (1/12, 1/6, 1/4, 1/2, 1, 2, 3, 4, 5, 6, 24 h). Samples were centrifuged at 10,800 rpm for 30 min and the supernatants were analyzed by HPLC in the same way as drug content. Then, 1 mL PBS at 37 °C was added after each sampling to maintain sink condition. The experiment was repeated 3 times to ensure consistency. Raw artemether was used as control. Mean values and standard deviations were subsequently calculated.
# [2] = design: method as in PMID 21914160; conditions: intravenous artesunate, clinical practice; cited from earlier work
# [3] = cited from earlier work
molecule,measurement,setting,value
CO[C@H]1O[C@@H]2O[C@@]3(C)CC[C@H]4[C@H](C)CC[C@@H]([C@H]1C)[C@@]24OO3 [artemether],hemolytic effect (in words),red blood cells (RBCs),destroyed RBCs as much as the positive control
same,artemether released / dissolved within 5 h,[1],almost all
C[C@H]1[C@H](OC(=O)CCC(=O)O)O[C@@H]2O[C@@]3(C)CC[C@H]4[C@H](C)CC[C@@H]1[C@@]24OO3 [artesunate],half-life,[2],less than 1 h
Zein,isoelectric point (pI),[3],6.2
sodium caseinate,isoelectric point (pI),[3],4.5
